Measured values: PMC6829864, “Determination of Ligand Profiles for Pseudomonas aeruginosa Solute Binding Proteins” (International Journal of Molecular Sciences, 2019)

Legend:
PA1342 (aatJ) = target: T1, PA1342 (aatJ) (Pseudomonas aeruginosa, UniProt Q9I402); test: DSF thermal shift ligand screening, PA1342; assay type: binding, Pseudomonas aeruginosa PAO1; settings: Tm change vs ligand-free protein
T1 sequence (Q9I402 24-302): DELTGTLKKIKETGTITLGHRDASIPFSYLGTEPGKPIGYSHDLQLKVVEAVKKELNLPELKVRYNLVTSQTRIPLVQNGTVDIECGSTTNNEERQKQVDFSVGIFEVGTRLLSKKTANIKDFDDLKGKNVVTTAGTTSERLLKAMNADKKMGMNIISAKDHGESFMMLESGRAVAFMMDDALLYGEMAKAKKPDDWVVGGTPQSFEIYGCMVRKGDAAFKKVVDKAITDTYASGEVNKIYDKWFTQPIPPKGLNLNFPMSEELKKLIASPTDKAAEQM

PA1074 (braC) [1] = target: T2, PA1074 (braC) (Pseudomonas aeruginosa, UniProt P21175); assay type: binding, Pseudomonas aeruginosa PAO1; settings: Tm change vs ligand-free protein
PA1074 (braC) [2] = target: T2, PA1074 (braC); test: biochemical; assay type: binding, Pseudomonas aeruginosa PAO1
PA2338 [3] = target: T3, PA2338 (Pseudomonas aeruginosa, UniProt Q9I1E0); test: DSF thermal shift ligand screening, PA2338; assay type: binding, Pseudomonas aeruginosa PAO1; settings: Tm change vs ligand-free protein
PA2338 [4] = target: T3, PA2338; test: Isothermal titration calorimetry, PA2338; assay type: binding, Pseudomonas aeruginosa PAO1; settings: 25 °C, read-out: KD by ITC
PA0283 (sbp) [5] = test: DSF thermal shift ligand screening, PA0283; assay type: binding, Pseudomonas aeruginosa PAO1; settings: Tm change vs ligand-free protein
PA0283 (sbp) [6] = test: Isothermal titration calorimetry, PA0283; assay type: binding, Pseudomonas aeruginosa PAO1; settings: 25 °C
PA1493 (cysP) [7] = target: T4, PA1493 (cysP) (Pseudomonas aeruginosa, UniProt Q9I3L9); test: biochemical; assay type: binding, Pseudomonas aeruginosa PAO1
[8] = system: Pseudomonas aeruginosa PAO1; assay type: cell-based; settings: chemoeffector 1 mM, except molybdate 0.1 mM
PA1493 (cysP) [9] = target: T4, PA1493 (cysP); settings: Tm change vs ligand-free protein
PA4687 (hitA) [10] = assay type: binding, Pseudomonas aeruginosa PAO1
PA4687 (hitA) [11] = settings: Tm change vs ligand-free protein

T2 sequence (P21175 27-373): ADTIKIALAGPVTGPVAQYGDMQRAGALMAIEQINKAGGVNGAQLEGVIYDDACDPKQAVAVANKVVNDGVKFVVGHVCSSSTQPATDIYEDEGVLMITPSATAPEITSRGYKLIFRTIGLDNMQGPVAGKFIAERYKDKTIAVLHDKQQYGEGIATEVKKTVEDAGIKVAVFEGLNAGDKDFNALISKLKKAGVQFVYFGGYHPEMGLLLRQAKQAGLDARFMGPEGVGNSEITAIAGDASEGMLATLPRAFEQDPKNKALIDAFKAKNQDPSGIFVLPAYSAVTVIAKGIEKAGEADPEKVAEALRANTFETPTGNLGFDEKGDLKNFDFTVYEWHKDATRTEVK
T3 sequence (Q9I1E0 23-436): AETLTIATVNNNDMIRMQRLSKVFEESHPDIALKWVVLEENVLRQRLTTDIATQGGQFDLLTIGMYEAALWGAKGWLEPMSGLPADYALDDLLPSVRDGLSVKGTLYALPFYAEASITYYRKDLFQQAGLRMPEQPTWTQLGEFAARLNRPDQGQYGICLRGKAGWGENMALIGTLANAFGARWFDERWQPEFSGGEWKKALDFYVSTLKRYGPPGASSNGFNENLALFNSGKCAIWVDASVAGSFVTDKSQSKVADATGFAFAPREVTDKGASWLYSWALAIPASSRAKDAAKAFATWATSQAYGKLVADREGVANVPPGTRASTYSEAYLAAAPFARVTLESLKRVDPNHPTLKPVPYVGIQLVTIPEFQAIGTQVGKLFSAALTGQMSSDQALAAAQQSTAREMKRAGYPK
T4 sequence (Q9I3L9 23-332): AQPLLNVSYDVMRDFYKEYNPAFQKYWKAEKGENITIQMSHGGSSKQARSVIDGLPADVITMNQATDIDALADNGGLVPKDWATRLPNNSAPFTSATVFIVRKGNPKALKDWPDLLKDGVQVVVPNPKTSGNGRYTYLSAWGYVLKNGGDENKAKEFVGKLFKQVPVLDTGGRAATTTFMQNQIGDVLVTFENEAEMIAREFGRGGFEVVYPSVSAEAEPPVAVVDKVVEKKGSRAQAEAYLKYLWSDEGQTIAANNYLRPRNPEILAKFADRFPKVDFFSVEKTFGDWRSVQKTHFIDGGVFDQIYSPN

For `N[C@@H](CC(=O)O)C(=O)O` [L-Asp], the “Tm DSF (Tm increase)” value (PA1342 (aatJ)) was 10.9 °C.

With `CC(C)C[C@H](N)C(=O)O` [L-Leu] the “Tm DSF (Tm increase)” value (PA1074 (braC) [1]) was 4.0 12.1 10.1 10.2 3.0 3.5 5.0 3.8 4.2 °C and the Kd (PA1074 (braC) [2]) was 0.29 µM.

With `OC[C@@H](O)[C@@H](O)[C@H](O)[C@H](O)CO` [Mannitol] the “Tm DSF (Tm increase)” value (PA2338 [3]) was 4.1 °C and the Kd (PA2338 [4]) was 0.83 ± 0.2 µM.

With `O=S(O)(O)=S` [Thiosulphate] the “Tm DSF (Tm increase)” value (PA0283 (sbp) [5]) was 2.1 °C, the “KD by ITC” value (PA0283 (sbp) [6]) was “No binding No binding” and the Kd (PA1493 (cysP) [7]) was 0.29 ± 0.2 µM. For the same molecule, the “Chemotaxis response in words” value [8] was “moderate taxis” and the “Tm DSF (Tm increase)” value (PA1493 (cysP) [9]) was 7.4 °C.

With Iron(III) citrate the “No Binding Observed by ITC” value (PA4687 (hitA) [10]) was “did not show any binding” and the “Tm DSF (Tm increase)” value (PA4687 (hitA) [11]) was “no significant increases in Tm”.
